Measured values from US6806359B1, “Hormone receptor compositions and methods” (The Salk Institute for Biological Studies, priority 1986, dated 2004).

Experiments:
[1] = system: rat GH 5′-flanking sequences in rat pituitary GC2 cells; experiment: T3 responsiveness of rat GH 5′-flanking sequence-CAT gene fusions transfected into GC2 cells; type: cell-based; details: for stimulation of CAT activity: GH −235 to −45 fused to tk promoter
Excerpt: […]. To overcome this problem, a rat prolactin enhancer element^11 was fused proximal to fragments of the rat GH gene containing 181 and 110 bp of 5′ flanking information. […].
To assay 3′ deletions, fragments of the rat Gh gene were fused to the herpes simplex virus thymidine kinase (HSV tk) promoter. A fragment of the Gh gene extending from position −235 to position −45 from the CAP site produced 2.5-and 2.3-fold stimulations of CAT activity when fused to the tk promoter in native and inverse orientation, respectively (FIG. 57). […]. […].
Thyroid hormone responsiveness of various gene fusions containing rat GH 5′-flanking sequences. FIG. 56, Responsiveness of 5′ and 3′ deletions of the rat GH gene. 5′-deleted fragments of the rat GH gene were fused to the CAT gene in a pSV2CAT-based vector^18, in which the SV40 origin of replication and promoter were removed. […]. The illustrated 3′-deleted fragments were fused to a tk promoter fragment, extending from position −197 to position +54 and placed proximal to the CAT gene in the same vector. […]. Error limits represent the standard error of the mean. Each construction was assayed two to five times. An represents SV40 polyadenylation sites. FIG. 58, Messenger RNA transcription initiation site analysis. The diagram indicates the […] primer complimentary to nucleotides 67 to 89 of the CAT coding sequence used to determine the CAP site of transcripts of plasmids containing the tk promoter. GC cells were transfected with test plasmids and hormone treated as described for the experiments presented in panels a and b. Primer extension analysis was performed on 50 micrograms total RNA. Lanes A and B represent the extension product from cells transfected with a plasmid containing the GH fragment extending from positions 235 to 45 from the CAP site fused to the tk promoter. Lanes C and D represent the extension product from cells transfected with a plasmid containing the tk promoter alone. No extension products were observed. […].
Fusions containing the rat prolactin enhancer were made by excising this fragment (corresponding to rat prolactin sequence nucleotide positions 1831-1530) from plasmid pPSS^11 and inserting it in reverse orientation proximal to the 5′ deletions of the growth hormone element. Fusions containing the HSV tk promoter were made by excising fragments of the GH enhancer from the plasmid GPO (ref. 11) and inserting them into the BamHI and SalI sites of a pSV2CAT-based expression vectors proximal to the tk promoter at positions −197 to +54. Alternatively, the GH enhancer was placed proximal to the promoter at positions −107 to +54 in a pUC8-based vector^20 by insertion into the BamHI and SalI polylinker sites. Site-directed mutagenesis of the GH enhancer element was performed by inserting the fragment from 235-45 bp from the CAP site into the BamHI and SalI sites of M13 mp18. A 21-base oligonucleotide was synthesized which corresponded to antisense GH nucleotides −188 to −157, in which nucleotides −177 to −166 were deleted and replaced by an A nucleotide. This oligonucleotide was used to delete bases −177 to −166 in the GH enhancer using the procedure of Kunkel^21. CAT activity was determined by radioassay of methylated chloramphenicol derivatives after thin layer chromatography^19. Primer extension was by the method of Elsholtz, et al.^12

[2] = system: rat GH 5′-flanking sequences in rat pituitary GC2 cells; experiment: as above; type: cell-based; details: 5′ deletion to −107 with rat prolactin enhancer
[3] = system: hGR; experiment: Steroid binding assay ([^3H]DEX) in cytosol of COS cells transfected with hGR or mutants; set-up: species or system human; details: steroid-binding capacity as percentage of wild-type hGR
Procedure: (§1) The cells are then cultured in the presence or absence of hormone. CV-1 cells were used to monitor induction of CAT activity, and COS cells were used to measure steroid-binding capacity and the expression of hGR protein.
COS cells were lysed in hypotonic buffer containing 10 mM Tris-HCl (pH 7.5), 10 mM NaCl, 1 mM EDTA, 5 micrograms/ml antipain, 5 micrograms/ml leupeptin, and 0.5 mM PMSF by Dounce homogenization and centrifuged 10 min. at 15,000×g to yield the cytosolic fraction. Incubations were performed in hypotonic buffer adjusted to 100 mM NaCl and contained 100 micrograms of protein from the cytosolic fraction and 2×10^−8[^3H]DEX (Amersham, 95 Ci/mmol) in total volume of 200 microliters. Nonspecific binding was measured by the addition of 2×10^−6 unlabeled DEX. Reactions were carried out at 0° C. for 2 hr., followed by a 5 min. incubation with 20 microliters of 50% dextran-coated charcoal (10:1 activated charcoal:dextran) and centrifugation at 15,000×g for 2 min. at 4° C. Supernatants were counted by liquid scintillation methods in a Beckman LS-7800 liquid scintillation spectrophotometer. Each assay usually gave 2500-3000 cpm [^3H] labeled steroid; unlabeled DEX competed for 70% of this binding.

[4] = system: hGR; experiment: hGR functional assay: CAT activity in CV-1 cells cotransfected with pRShGR alpha (or mutant) and pMTVCAT; type: cell-based, human; details: percentage of wild-type hGR activity; CV-1 cells cultured 2 days with 10 nM DEX
Excerpt: The assay system and strategy used to study the expression of functional hGR from the cloned cDNA (See Experimental Section I) is shown in FIG. 11. In these experiments, a glucocorticoid-responsive promoter/enhancer element linked to a reporter gene was introduced into a receptor-negative cell. […] For our assay, we chose to use the MTV LTR fused to the sequence coding for chloramphenicol acetyltransferase (CAT) (EC2.3.1.28). […] Cotransfection of pMTVCAT (or pGMCAT) with a receptor expression plasmid provides functional receptors that allow induction of CAT activity upon treatment of the transfected cells with glucocorticoid hormone. In addition, biochemical studies such as steroid binding activity and Western blot analysis of the expressed receptors can be performed simultaneously.
as §1
CAT assays were performed as indicated in Experimental Procedures (See Section II. F.). C, chloramphenicol; AC, 3-acetylchloramphenicol.
The levels of CAT activity were plotted as percentages of the maximal response observe in a particular experiment.
Each plasmid preparation used for transfection was purified using two consecutive CsCl-EtBr equilibrium gradients. […]

| Compound | regulation of CAT expression by T3 ([1]; 5′ deletion to −235 of rat GH gene fused to CAT) | induction of CAT expression by T3 ([1]; 5′-deleted fragment to −181 with rat prolactin enhancer) | increase of correctly initiated CAT mRNA (primer extension) ([1]; 235-45 bp GH fragment fused to tk promoter, 10^−9M T3) | stimulation of CAT activity ([1]; inverse orientation) | stimulation of CAT activity ([1]; native orientation) | stimulation of CAT expression ([1]; construction G29TK) | stimulation of CAT expression (in words) ([1]; construction G293TK, three tandem repeats) | effect on CAT expression (in words) ([1]; mutant G delta 166/177 fused to tk promoter) | stimulation of CAT expression (in words) ([1]; wild-type GH enhancer fused to tk promoter) | T3 regulation of CAT expression (in words) [2] | DEX Binding (%) [3] | CAT Activity (%) [4] |
| --- | --- | --- | --- | --- | --- | --- | --- | --- | --- | --- | --- | --- |
| N[C@@H](Cc1cc(I)c(Oc2ccc(O)c(I)c2)c(I)c1)C(=O)O [T3, 3,5,3′-triiodo-L-thyronine] | 4.6 fold | 2.6 fold | about 4 fold | 2.3 fold | 2.5 fold | 2.9 fold | five-fold | no effect | ninefold | abolished T3 regulation |  |  |
| hGR alpha: wild-type human glucocorticoid receptor, alpha form, 777 amino acids |  |  |  |  |  |  |  |  |  |  | 100% | 100% |
